From patent US20230202973A1, “BARNESIN A, DERIVATIVES AND USES THEREOF” (Leibniz-Institut Für Naturstoff-Forschung Und …, priority 2018, published 2023)
Where two headings read alike, the source gives them in different places.

Key:
pepsin = target: T1, pepsin (Sus scrofa, UniProt P00791); test: Protease assay with azocasein: pepsin; type: biochemical; conditions: azocasein substrate, pH 3.5; n.i. = no inhibition
T1 construct: purchased Sigma-Aldrich P6887
Procedure: (§1) Protease Assays with azocasein: Protease inhibition assays against the proteases papain, ficin, trypsin, pepsin and thermolysin were performed according to the protocol of Garcia-Carreño (loc. cit.) in a reaction buffer containing 25 mM TRIS-HCl, 0.15 M NaCl, pH 7.2 (or pH 3.5 for aspartic protease). The total assay volume was 47 μL buffer with 2 μL of the protease as well as 1 μL of suitable inhibitor or corresponding inhibitor solvent (100% MeoH or water). Final concentration of proteases was as follows: 2 mg/mL for papain (Sigma-Aldrich, P4762), 600 μg/mL for ficin (Sigma-Aldrich, F6008), 80 μg/mL for trypsin (Thermo Fisher, 23266), 60 mg/mL for pepsin (Sigma-Aldrich P6887)) and 2 μg/mL for thermolysin (Sigma-Aldrich, P1512).
(§2) Inhibitors were dissolved in 100% MeOH or water and added to the assay (1 μL); final concentration: 2% MeOH. Samples of control inhibitors were prepared as follows: (1) serine protease (trypsin): PMFS (2 mM) and soybean trypsin inhibitor (240 μM) (Sigma-Aldrich, T1021), (2) cysteine proteases (papain and ficin): iodacetamide (2 mM), (3) […] (pepsin): pepstatin A (1 μg/mL) (Sigma-Aldrich, P4265), (4) metalloprotease (thermolysin): EDTA (10 mM). […] Negative controls were performed with protease alone (without inhibitor) and MeOH at a final concentration of 2% (reference for activity of 100%). Extract absorbance controls were performed using inhibitor (1 μL in MeOH) without protease. Blanks were performed using 49 μL buffer and 1 μL MeOH.
(§3) Samples were incubated with buffer and suitable inhibitor (or without for negative controls) for 1 h at r.t. and the reaction was started afterward by adding 50 μl of […] substrate and incubated for 1 h at 37° C. After stopping the reaction with trichloracetic acid (TCA), the separation of the precipitate was accomplished by centrifugation at 6500 g for 5 min. The hydrolyzed substrate supernatant was incubated in an equal volume of 0.5 N NaOH for 5 min and the absorbance was measured at 440 nm. OD values of the protease control without inhibitor were used as reference for a 100% activity.
(§4) The log IC50 values were determined using the standard curves analyzing tool with four parameter logistic equation of SigmaPlot12 with technical triplicates. Propagation of error was calculated using the standard error and log IC50 values where the equation of error propagation is defined as Δy=0.43Δx/x.

ficin = test: Protease assay with azocasein: ficin; type: biochemical; conditions: azocasein substrate, pH 7.2, n.i. = no inhibition; for IC50: read-out: Ficin, inhibitory activity as IC50 value
Procedure: as §1, §2, §3, §4

Cathepsin B = Cathepsin B (Homo sapiens, UniProt P07858); test: Cathepsin B inhibition assay (Z-Arg-Arg-AMC); type: biochemical; conditions: Z-Arg-Arg-AMC substrate, pH 6.0, n.i. = no inhibition; for IC50: read-out: Cathepsin B, inhibitory activity as IC50 value
Procedure: Cathepsin B inhibition assay. Cathepsin B inhibition assay was determined according to Hiwasa et al. (loc. cit.) with minor changes. Cathepsin B was purchased from Sigma Aldrich (C0150) and stored in 50 mM sodium acetate, 1 mM EDTA, pH 5 (adjusted with acetic acid). Cathepsin B was activated by preincubation at 40° C. for 10 min in assay buffer (0.1 M sodium acetate 1.3 mM EDTA, pH 6.0 adjusted with acetic acid, 2 μM DTT, 2.6 mM cysteine and 0.05% Triton X100). […] Final concentration of cathepsin B was 0.1 mg/ml. […] After stopping the reaction with 85 μL buffer containing 100 mM sodium monochlor acetate, 30 mM sodium acetate, 70 mM acetic acid, the hydrolyzed substrate was detected at an excitation wavelength of 380 nm and a fluorescence wavelength of 450 nm, using a fluorophotometer. 1 μL of 1.5 mM leupeptin was used as enzyme inhibition control.

papain [1] = target: T2, papain (Carica papaya, UniProt P00784); test: Protease assay with azocasein: papain; type: biochemical; conditions: azocasein substrate, pH 7.2, n.i. = no inhibition; for IC50: read-out: Papain, inhibitory activity as IC50 value
T2 construct: purchased Sigma-Aldrich P4762
T2 sequence (P00784 134-345): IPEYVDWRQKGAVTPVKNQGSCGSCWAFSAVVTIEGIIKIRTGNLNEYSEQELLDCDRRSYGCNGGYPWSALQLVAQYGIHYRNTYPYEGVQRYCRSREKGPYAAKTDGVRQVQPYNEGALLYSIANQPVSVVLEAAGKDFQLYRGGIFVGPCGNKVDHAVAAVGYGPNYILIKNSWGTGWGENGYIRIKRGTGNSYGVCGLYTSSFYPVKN
Procedure: as §1, §2, §3, §4

thermolysin = target: T3, thermolysin (Bacillus thermoproteolyticus, UniProt P00800); test: Protease assay with azocasein: thermolysin; type: biochemical; conditions: azocasein substrate, pH 7.2; n.i. = no inhibition
T3 construct: purchased Sigma-Aldrich P1512
Procedure: as §1, §2, §3, §4

trypsin [2] = target: T4, trypsin (Bos taurus, UniProt P00760); test: Protease assay with azocasein: trypsin; type: biochemical; conditions: azocasein substrate, pH 7.2; n.i. = no inhibition
T4 construct: purchased Thermo Fisher 23266
T4 sequence (P00760 24-246): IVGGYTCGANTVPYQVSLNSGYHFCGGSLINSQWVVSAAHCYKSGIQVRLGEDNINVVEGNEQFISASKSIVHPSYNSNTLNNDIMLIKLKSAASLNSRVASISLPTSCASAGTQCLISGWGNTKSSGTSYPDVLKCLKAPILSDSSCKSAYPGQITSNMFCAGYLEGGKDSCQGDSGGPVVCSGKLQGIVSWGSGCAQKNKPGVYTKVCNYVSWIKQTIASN
Procedure: as §1, §2, §3, §4

[3] = system: thermolysin (Sigma-Aldrich, P1512); conditions: 10 mM EDTA
Procedure: Protease Assays with azocasein: Protease inhibition assays against the proteases papain, ficin, trypsin, pepsin and thermolysin were performed according to the protocol of Garcia-Carreño (loc. cit.) in a reaction buffer containing 25 mM TRIS-HCl, 0.15 M NaCl, pH 7.2 (or pH 3.5 for aspartic protease). The total assay volume was 47 μL buffer with 2 μL of the protease as well as 1 μL of suitable inhibitor or corresponding inhibitor solvent (100% MeoH or water). […]
Inhibitors were dissolved in 100% MeOH or water and added to the assay (1 μL); final concentration: 2% MeOH. […] Extract absorbance controls were performed using inhibitor (1 μL in MeOH) without protease. […]
Samples were incubated with buffer and suitable inhibitor (or without for negative controls) for 1 h at r.t. and the reaction was started afterward by adding 50 μl of […] substrate and incubated for 1 h at 37° C. […] The hydrolyzed substrate supernatant was incubated in an equal volume of 0.5 N NaOH for 5 min and the absorbance was measured at 440 nm. […]
as §4

trypsin [4] = conditions: reported in literature for known compounds; read-out: Trypsin, reported inhibitory activity as IC50 value; cited from earlier work
papain [5] = target: T2, papain; conditions: reported in literature for known compounds; read-out: Papain, reported inhibitory activity as IC50 value; cited from earlier work

T1 sequence (P00791 60-385): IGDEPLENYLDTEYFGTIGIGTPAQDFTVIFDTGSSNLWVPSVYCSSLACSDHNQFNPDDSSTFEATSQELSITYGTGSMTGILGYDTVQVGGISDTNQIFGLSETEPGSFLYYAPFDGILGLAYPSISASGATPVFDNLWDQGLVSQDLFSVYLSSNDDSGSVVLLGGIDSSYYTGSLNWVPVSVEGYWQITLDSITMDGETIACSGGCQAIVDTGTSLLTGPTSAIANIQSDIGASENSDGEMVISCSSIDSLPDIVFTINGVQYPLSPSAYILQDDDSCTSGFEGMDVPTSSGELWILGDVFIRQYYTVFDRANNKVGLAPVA
T3 sequence (P00800 233-548): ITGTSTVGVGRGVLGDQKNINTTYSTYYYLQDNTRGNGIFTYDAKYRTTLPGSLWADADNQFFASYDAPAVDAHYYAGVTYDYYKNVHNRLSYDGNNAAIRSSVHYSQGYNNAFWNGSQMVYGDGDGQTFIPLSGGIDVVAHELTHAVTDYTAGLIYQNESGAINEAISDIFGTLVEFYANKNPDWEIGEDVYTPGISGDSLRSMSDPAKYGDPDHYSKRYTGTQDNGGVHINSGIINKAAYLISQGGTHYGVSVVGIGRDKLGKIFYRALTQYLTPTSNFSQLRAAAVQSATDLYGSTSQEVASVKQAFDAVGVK

SMILES: CCCCCCCC(=O)N[C@@H](Cc1ccc(O)cc1)C(=O)N[C@H](/C=C/C(=O)O)CCCNC(=N)N [17,18-Dihydrobarnesin (4), 17,18-Dihydrobarnesin]
- Pepsin, inhibitory activity as IC50 value (pepsin): n.i.
- IC50 (ficin): 1160 nM
- IC50 (Cathepsin B): 87.6 nM
- IC50 (papain [1]): 4780 nM
- Thermolysin, inhibitory activity as IC50 value (thermolysin): n.i.
- Trypsin, inhibitory activity as IC50 value (trypsin [2]): n.i.

SMILES: CCCCCCCC(=O)N[C@@H](Cc1ccc(O)cc1)C(=O)N[C@@H](CCCNC(=N)N)CCC(=O)O [(R), 2,3,17,18-Tetrahydrobarnesin A, reference compound]
- Pepsin, inhibitory activity as IC50 value (pepsin): n.i.
- Ficin, inhibitory activity as IC50 value (ficin): n.i.
- Cathepsin B, inhibitory activity as IC50 value (Cathepsin B): n.i.
- Papain, inhibitory activity as IC50 value (papain [1]): n.i.
- Thermolysin, inhibitory activity as IC50 value (thermolysin): n.i.
- Trypsin, inhibitory activity as IC50 value (trypsin [2]): n.i.

SMILES: CCCCCCCC(=O)N[C@@H](Cc1ccc(O)cc1)C(=O)N[C@@H](CCCNC(=N)N)CCC(=O)OC [(S), 2,3-17,18-Tetrahydrobarnesin A methyl ester, reference compound]
- Pepsin, inhibitory activity as IC50 value (pepsin): n.i.
- Ficin, inhibitory activity as IC50 value (ficin): n.i.
- Cathepsin B, inhibitory activity as IC50 value (Cathepsin B): n.i.
- Papain, inhibitory activity as IC50 value (papain [1]): n.i.
- Thermolysin, inhibitory activity as IC50 value (thermolysin): n.i.
- Trypsin, inhibitory activity as IC50 value (trypsin [2]): n.i.

SMILES: CCCCC/C=C/C(=O)N[C@@H](Cc1ccc(O)cc1)C(=O)N[C@H](/C=C/C(=O)O)CCCNC(=N)N [Barnesin A (1), Barnesin A]
- Pepsin, inhibitory activity as IC50 value (pepsin): n.i.
- IC50 (ficin): 3430 nM
- IC50 (Cathepsin B): 91.7 nM
- IC50 (papain [1]): 16000 nM
- Thermolysin, inhibitory activity as IC50 value (thermolysin): n.i.
- Trypsin, inhibitory activity as IC50 value (trypsin [2]): n.i.

SMILES: CCCCC/C=C/C(=O)N[C@@H](Cc1ccc(O)cc1)C(=O)N[C@H](/C=C/C(=O)OCC)CCCN=C(N)N [Barnesin A ethyl ester (3), (E)-Oct-2-enoyl-tyrosine-vinylogous arginine ethyl ester]
- Pepsin, inhibitory activity as IC50 value (pepsin): n.i.
- IC50 (ficin): 3430 nM
- IC50 (Cathepsin B): 24 nM
- IC50 (papain [1]): 2890 nM
- Thermolysin, inhibitory activity as IC50 value (thermolysin): n.i.
- Trypsin, inhibitory activity as IC50 value (trypsin [2]): n.i.

SMILES: O=C(O)CN(CCN(CC(=O)O)CC(=O)O)CC(=O)O [EDTA]
- inhibition of enzyme activity (control inhibitor), thermolysin [3]: > 95%

SMILES: CC(=O)N[C@@H](CC(C)C)C(=O)N[C@@H](CC(C)C)C(=O)N[C@H](C=O)CCCNC(=N)N [Leupeptin, reference compound]
- IC50 (trypsin [4]): 2200 nM
- IC50 (papain [5]): 860 nM
